One test has as its target SMARCA2 (Homo sapiens, UniProt P51531). The test is described as follows: HiBiT assay for protein degradation, Hela SMARCA2-HiBiT cells (A series).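 On SMARC A2 Hela HiBit Dmax (%): 24 h compound treatment.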 The class given is cell-based. Also noted: Hela cells were genetically modified via CRISPR/Cas9 to fuse HiBiT to the carboxy terminus of SMARCA2; host or cells: HeLa (CRISPR/Cas9 HiBiT knock-in). As to conditions: Hela SMARCA2-HiBiT cells, 24 hours treatment; for DC50: read-out: SMARC A2 Hela HiBit DC50; for Dmax: read-out: SMARC A2 Hela HiBit Dmax (%). The method in brief: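 HeLa cells engineered by CRISPR/Cas9 to carry a HiBiT tag fused to the C-terminus of SMARCA2 (Promega CS302365) were grown in DMEM supplemented with FBS and penicillin-streptomycin. After treatment, remaining SMARCA2 protein was quantified with the Nano-Glo® HiBiT Lytic Detection Assay (Promega N3050), and curves were fitted in GraphPad Prism.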
Background: With HiBiT, luminescence reflects the tagged protein that the partner subunit can reach.

The next test has as its target SMARCA4 (Homo sapiens, UniProt P51532). The experiment in a line: HiBiT assay for protein degradation, Hela SMARCA4-HiBiT cells (A series). The class given is cell-based. Also on record: fuse HiBiT to the carboxy terminus of SMARCA2 (Promega CS302365) or SMARCA4 (Promega CS3023225); host or cells: HeLa (CRISPR/Cas9 HiBiT knock-in). The following applies: Hela SMARCA4-HiBiT cells, 24 hours treatment; for DC50: read-out: SMARC A4 Hela HiBit DC50; for Dmax: read-out: SMARC A4 Hela HiBit Dmax. The method in brief:
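HeLa cells engineered by CRISPR/Cas9 to carry a HiBiT tag fused to the C-terminus of SMARCA4 (Promega CS3023225) were grown in DMEM supplemented with FBS and penicillin-streptomycin. After compound exposure, remaining SMARCA4 protein was quantified using the Nano-Glo® HiBiT Lytic Detection Assay (Promega N3050), and curves were fitted in GraphPad Prism.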

SMARCA2, sequence (P51531 whole entry, the tested form may be a part): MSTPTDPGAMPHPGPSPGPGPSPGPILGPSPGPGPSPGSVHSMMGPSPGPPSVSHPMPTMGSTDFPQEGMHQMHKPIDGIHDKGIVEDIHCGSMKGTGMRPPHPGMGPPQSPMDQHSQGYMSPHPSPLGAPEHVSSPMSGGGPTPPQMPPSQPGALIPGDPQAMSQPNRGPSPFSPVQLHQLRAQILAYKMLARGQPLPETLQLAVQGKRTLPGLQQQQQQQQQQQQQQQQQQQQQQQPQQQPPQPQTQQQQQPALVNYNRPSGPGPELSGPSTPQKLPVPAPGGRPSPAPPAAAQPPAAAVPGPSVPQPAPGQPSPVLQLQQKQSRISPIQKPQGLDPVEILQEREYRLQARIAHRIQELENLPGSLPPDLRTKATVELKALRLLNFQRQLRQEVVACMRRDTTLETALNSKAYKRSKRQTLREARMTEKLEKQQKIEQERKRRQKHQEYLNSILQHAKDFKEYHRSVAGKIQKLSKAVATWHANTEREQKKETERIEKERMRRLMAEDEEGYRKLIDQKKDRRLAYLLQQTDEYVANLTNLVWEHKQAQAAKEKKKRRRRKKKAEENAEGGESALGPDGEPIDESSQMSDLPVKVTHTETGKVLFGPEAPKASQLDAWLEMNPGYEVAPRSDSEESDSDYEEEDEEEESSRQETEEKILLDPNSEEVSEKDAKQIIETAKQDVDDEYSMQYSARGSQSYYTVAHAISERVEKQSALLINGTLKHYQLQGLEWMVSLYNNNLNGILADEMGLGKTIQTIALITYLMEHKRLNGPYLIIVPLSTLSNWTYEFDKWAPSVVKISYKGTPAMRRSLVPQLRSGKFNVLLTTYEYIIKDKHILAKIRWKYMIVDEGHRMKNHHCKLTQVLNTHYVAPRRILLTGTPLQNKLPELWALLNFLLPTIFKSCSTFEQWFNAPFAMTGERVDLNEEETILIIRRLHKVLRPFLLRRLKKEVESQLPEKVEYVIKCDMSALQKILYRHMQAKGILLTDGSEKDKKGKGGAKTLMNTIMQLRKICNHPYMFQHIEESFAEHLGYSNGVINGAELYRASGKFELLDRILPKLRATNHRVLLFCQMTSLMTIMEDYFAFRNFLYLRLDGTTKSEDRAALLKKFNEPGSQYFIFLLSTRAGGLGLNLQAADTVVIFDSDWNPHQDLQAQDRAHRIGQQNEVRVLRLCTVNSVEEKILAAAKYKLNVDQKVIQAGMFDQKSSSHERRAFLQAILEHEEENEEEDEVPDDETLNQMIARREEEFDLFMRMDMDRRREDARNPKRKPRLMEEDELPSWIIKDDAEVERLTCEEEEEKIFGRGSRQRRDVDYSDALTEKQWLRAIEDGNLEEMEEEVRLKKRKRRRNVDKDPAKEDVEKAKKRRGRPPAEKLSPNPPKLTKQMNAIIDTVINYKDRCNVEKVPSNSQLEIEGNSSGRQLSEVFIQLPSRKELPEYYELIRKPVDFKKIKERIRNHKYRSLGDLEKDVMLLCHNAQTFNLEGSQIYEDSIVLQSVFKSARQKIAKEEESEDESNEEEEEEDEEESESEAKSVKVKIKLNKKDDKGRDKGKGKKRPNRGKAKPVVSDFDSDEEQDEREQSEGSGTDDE
SMARCA4, sequence (P51532 whole entry, the tested form may be a part): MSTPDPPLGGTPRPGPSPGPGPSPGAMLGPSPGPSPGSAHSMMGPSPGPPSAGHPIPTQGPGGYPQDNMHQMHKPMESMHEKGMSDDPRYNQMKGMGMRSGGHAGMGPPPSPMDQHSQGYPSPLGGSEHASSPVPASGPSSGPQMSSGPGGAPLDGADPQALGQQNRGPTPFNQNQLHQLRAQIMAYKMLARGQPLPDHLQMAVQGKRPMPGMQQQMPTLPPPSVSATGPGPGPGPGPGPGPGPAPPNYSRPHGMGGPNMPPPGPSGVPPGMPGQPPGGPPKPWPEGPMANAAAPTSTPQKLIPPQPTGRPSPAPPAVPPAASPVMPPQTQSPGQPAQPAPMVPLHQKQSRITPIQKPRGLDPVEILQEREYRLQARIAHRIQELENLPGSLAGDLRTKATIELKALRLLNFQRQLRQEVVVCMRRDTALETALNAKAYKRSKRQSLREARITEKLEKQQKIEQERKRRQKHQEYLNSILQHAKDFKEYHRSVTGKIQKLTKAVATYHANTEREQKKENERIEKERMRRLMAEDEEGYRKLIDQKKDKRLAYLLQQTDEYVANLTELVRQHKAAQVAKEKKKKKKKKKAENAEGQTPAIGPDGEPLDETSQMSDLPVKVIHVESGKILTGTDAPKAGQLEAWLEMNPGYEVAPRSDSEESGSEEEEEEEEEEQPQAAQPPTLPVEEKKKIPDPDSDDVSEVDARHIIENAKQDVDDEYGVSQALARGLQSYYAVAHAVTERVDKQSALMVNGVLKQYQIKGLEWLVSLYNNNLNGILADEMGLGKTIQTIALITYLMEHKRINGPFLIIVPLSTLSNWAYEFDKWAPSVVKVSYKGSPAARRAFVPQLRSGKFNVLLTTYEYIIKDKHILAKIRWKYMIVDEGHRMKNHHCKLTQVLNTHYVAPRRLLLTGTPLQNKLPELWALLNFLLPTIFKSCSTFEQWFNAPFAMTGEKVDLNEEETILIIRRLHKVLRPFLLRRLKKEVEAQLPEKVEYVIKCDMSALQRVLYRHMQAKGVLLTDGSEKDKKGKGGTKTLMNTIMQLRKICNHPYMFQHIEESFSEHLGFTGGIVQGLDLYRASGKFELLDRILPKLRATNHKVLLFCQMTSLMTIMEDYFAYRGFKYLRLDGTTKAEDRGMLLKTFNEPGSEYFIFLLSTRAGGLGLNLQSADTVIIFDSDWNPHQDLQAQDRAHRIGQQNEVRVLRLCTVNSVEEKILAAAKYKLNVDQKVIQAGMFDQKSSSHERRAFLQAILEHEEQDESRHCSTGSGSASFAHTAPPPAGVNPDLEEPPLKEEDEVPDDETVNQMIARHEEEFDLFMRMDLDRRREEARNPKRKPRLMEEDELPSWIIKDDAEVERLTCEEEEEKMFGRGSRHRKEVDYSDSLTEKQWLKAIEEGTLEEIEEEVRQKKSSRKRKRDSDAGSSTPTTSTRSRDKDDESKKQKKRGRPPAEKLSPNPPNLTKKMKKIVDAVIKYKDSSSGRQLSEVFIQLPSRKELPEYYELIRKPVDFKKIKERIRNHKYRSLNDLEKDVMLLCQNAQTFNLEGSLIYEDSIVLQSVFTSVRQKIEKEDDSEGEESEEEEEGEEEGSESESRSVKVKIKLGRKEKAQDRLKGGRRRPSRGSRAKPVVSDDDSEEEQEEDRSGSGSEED

As for `Cc1ncsc1-c1ccc([C@H](CN2CC3(COC3)C2)NC(=O)[C@@H]2C[C@@H](O)CN2C(=O)[C@@H](n2cc([C@H]3CC[C@H](CN4CCC(c5ccc6c(c5)-n5c(nc(=O)c7c(Cl)cccc75)C65CCCCC5)CC4)CC3)nn2)C(C)(C)C)cc1` [Compound A96, (2S,4R)-1-((S)-2-(4-((1r,4S)-4-((4-(4′-chloro-5′-oxo-5′H-spiro[cyclohexane-1,7′-indolo[1,2-a]quinazolin]-10′-yl)piperidin-1-yl)methyl)cyclohexyl)-1H-1,2,3-triazol-1-yl)-3,3-dimethylbutanoyl)-4-hydroxy-N—((R)-1-(4-(4-methylthiazol-5-yl)phenyl)-2-(2-oxa-6-azaspiro[3.3]heptan-6-yl)ethyl)pyrrolidine-2-carboxamide], at SMARCA2, the half-maximal degradation concentration (DC50) is less than 10 nM and the greatest degradation seen (Dmax) was greater than 90%. Besides, at SMARCA4, the DC50 is greater than 1000 nM and the greatest degradation seen (Dmax) lay in the range of 50 to 69%.
On the same counts, the results for `Cc1ncsc1-c1ccc([C@H](CN2CCC3(COC3)C2)NC(=O)[C@@H]2C[C@@H](O)CN2C(=O)[C@@H](n2cc([C@H]3CC[C@H](CN4CCC(c5ccc6c(c5)-n5c(nc(=O)c7c(Cl)cccc75)C65CCCCC5)CC4)CC3)nn2)C(C)(C)C)cc1` [Compound A97, (2S,4R)-1-((S)-2-(4-((1r,4S)-4-((4-(4′-chloro-5′-oxo-5′H-spiro[cyclohexane-1,7′-indolo[1,2-a]quinazolin]-10′-yl)piperidin-1-yl)methyl)cyclohexyl)-1H-1,2,3-triazol-1-yl)-3,3-dimethylbutanoyl)-4-hydroxy-N—((R)-1-(4-(4-methylthiazol-5-yl)phenyl)-2-(2-oxa-6-azaspiro[3.4]octan-6-yl)ethyl)pyrrolidine-2-carboxamide] are less than 10 nM, greater than 90%, greater than 1000 nM and 50 to 69%.
On the same counts, the results for `Cc1ncsc1-c1ccc([C@H](CN2CC3(COC3)C2)NC(=O)[C@@H]2C[C@@H](O)CN2C(=O)[C@@H](n2cc([C@H]3CC[C@H](CN4CCC(c5ccc6c(c5)-n5c(nc(=O)c7c(Cl)cccc75)C6(C)C)CC4)CC3)nn2)C(C)(C)C)cc1` [Compound A98, (2S,4R)-1-((S)-2-(4-((1r,4S)-4-((4-(4-chloro-7,7-dimethyl-5-oxo-5,7-dihydroindolo[1,2-a]quinazolin-10-yl)piperidin-1-yl)methyl)cyclohexyl)-1H-1,2,3-triazol-1-yl)-3,3-dimethylbutanoyl)-4-hydroxy-N—((R)-1-(4-(4-methylthiazol-5-yl)phenyl)-2-(2-oxa-6-azaspiro[3.3]heptan-6-yl)ethyl)pyrrolidine-2-carboxamide] are less than 10 nM, greater than 90%, greater than 1000 nM and less than 50%.
The matching figures for `Cc1ncsc1-c1ccc([C@H](CN2CCC3(COC3)C2)NC(=O)[C@@H]2C[C@@H](O)CN2C(=O)[C@@H](n2cc([C@H]3CC[C@H](CN4CCC(c5ccc6c(c5)-n5c(nc(=O)c7c(Cl)cccc75)C6(C)C)CC4)CC3)nn2)C(C)(C)C)cc1` [Compound A99, (2S,4R)-1-((S)-2-(4-((1r,4S)-4-((4-(4-chloro-7,7-dimethyl-5-oxo-5,7-dihydroindolo[1,2-a]quinazolin-10-yl)piperidin-1-yl)methyl)cyclohexyl)-1H-1,2,3-triazol-1-yl)-3,3-dimethylbutanoyl)-4-hydroxy-N—((R)-1-(4-(4-methylthiazol-5-yl)phenyl)-2-(2-oxa-6-azaspiro[3.4]octan-6-yl)ethyl)pyrrolidine-2-carboxamide]: less than 10 nM, greater than 90%, greater than 1000 nM and less than 50%.
Take `Cc1ncsc1-c1ccc([C@H](CN2CCOCC2)NC(=O)[C@@H]2C[C@@H](O)CN2C(=O)[C@H](C2CCOCC2)n2cc([C@H]3CC[C@H](CN4CCC(c5ccc6c(c5)-n5c(nc(=O)c7c(Cl)cccc75)C65CCCCC5)CC4)CC3)nn2)cc1` [Compound A100, (2S,4R)-1-((S)-2-(4-((1r,4S)-4-((4-(4′-chloro-5′-oxo-5′H-spiro[cyclohexane-1,7′-indolo[1,2-a]quinazolin]-10′-yl)piperidin-1-yl)methyl)cyclohexyl)-1H-1,2,3-triazol-1-yl)-2-(tetrahydro-2H-pyran-4-yl)acetyl)-4-hydroxy-N—((R)-1-(4-(4-methylthiazol-5-yl)phenyl)-2-morpholinoethyl)pyrrolidine-2-carboxamide]: the DC50 on SMARCA2 was less than 10 nM; on SMARCA4 it was greater than 1000 nM. In addition, the values for the greatest degradation seen (Dmax) on SMARCA2 and at SMARCA4 were greater than 90% and 50 to 69%, respectively.
On the same counts, the results for `Cc1ncsc1-c1ccc([C@H](CN2CCOCC2)NC(=O)[C@@H]2C[C@@H](O)CN2C(=O)[C@H](C2CCOCC2)n2cc([C@H]3CC[C@H](CN4CCC(c5ccc6c(c5)-n5c(nc(=O)c7c(Br)cccc75)C65CCCCC5)CC4)CC3)nn2)cc1` [Compound A101, (2S,4R)-1-((S)-2-(4-((1r,4S)-4-((4-(4′-bromo-5′-oxo-5′H-spiro[cyclohexane-1,7′-indolo[1,2-a]quinazolin]-10′-yl)piperidin-1-yl)methyl)cyclohexyl)-1H-1,2,3-triazol-1-yl)-2-(tetrahydro-2H-pyran-4-yl)acetyl)-4-hydroxy-N-((R)-1-(4-(4-methylthiazol-5-yl)phenyl)-2-morpholinoethyl)pyrrolidine-2-carboxamide] are less than 10 nM, 10 to 100 nM, greater than 90% and 70 to 90%.
The matching figures for `Cc1ncsc1-c1ccc([C@H](CN2CCOCC2)NC(=O)[C@@H]2C[C@@H](O)CN2C(=O)[C@H](C2CCOCC2)n2cc([C@H]3CC[C@H](CN4CCC(c5ccc6c(c5)-n5c(nc(=O)c7c(Cl)cccc75)C6(C)C)CC4)CC3)nn2)cc1` [Compound A102, (2S,4R)-1-((S)-2-(4-((1r,4S)-4-((4-(4-chloro-7,7-dimethyl-5-oxo-5,7-dihydroindolo[1,2-a]quinazolin-10-yl)piperidin-1-yl)methyl)cyclohexyl)-1H-1,2,3-triazol-1-yl)-2-(tetrahydro-2H-pyran-4-yl)acetyl)-4-hydroxy-N-((R)-1-(4-(4-methylthiazol-5-yl)phenyl)-2-morpholinoethyl)pyrrolidine-2-carboxamide]: less than 10 nM, greater than 1000 nM, greater than 90% and 50 to 69%.
The matching figures for `Cc1ncsc1-c1ccc([C@H](CN2CCOCC2)NC(=O)[C@@H]2C[C@@H](O)CN2C(=O)[C@H](C(C)C)n2cc([C@H]3CC[C@H](CN4CCC(c5ccc6c(c5)-n5c(nc(=O)c7c(Cl)cccc75)C65CCCCC5)CC4)CC3)nn2)cc1` [Compound A103, (2S,4R)-1-((S)-2-(4-((1r,4S)-4-((4-(4′-chloro-5′-oxo-5′H-spiro[cyclohexane-1,7′-indolo[1,2-a]quinazolin]-10′-yl)piperidin-1-yl)methyl)cyclohexyl)-1H-1,2,3-triazol-1-yl)-3-methylbutanoyl)-4-hydroxy-N-((R)-1-(4-(4-methylthiazol-5-yl)phenyl)-2-morpholinoethyl)pyrrolidine-2-carboxamide]: less than 10 nM, less than 10 nM, greater than 90% and 50 to 69%.
Turning to `Cc1ncsc1-c1ccc([C@H](CN2CCOCC2)NC(=O)[C@@H]2C[C@@H](O)CN2C(=O)[C@H](C(C)C)n2cc([C@H]3CC[C@H](CN4CCC(c5ccc6c(c5)-n5c(nc(=O)c7c(Cl)cccc75)C6(C)C)CC4)CC3)nn2)cc1` [Compound A104, (2S,4R)-1-((S)-2-(4-((1r,4S)-4-((4-(4-chloro-7,7-dimethyl-5-oxo-5,7-dihydroindolo[1,2-a]quinazolin-10-yl)piperidin-1-yl)methyl)cyclohexyl)-1H-1,2,3-triazol-1-yl)-3-methylbutanoyl)-4-hydroxy-N-((R)-1-(4-(4-methylthiazol-5-yl)phenyl)-2-morpholinoethyl)pyrrolidine-2-carboxamide], on SMARCA2, the DC50 was less than 10 nM and the greatest degradation seen (Dmax) is greater than 90%. Also, on SMARCA4, the half-maximal degradation concentration (DC50) is greater than 1000 nM and the Dmax is 50 to 69%.
As to `Cc1ncsc1-c1ccc([C@H](C)NC(=O)[C@@H]2C[C@@H](O)CN2C(=O)[C@H](C2CCN(C(=O)CN3CCC(c4ccc5c(c4)-n4c(nc(=O)c6c(Cl)cccc64)C54CCCCC4)CC3)CC2)n2cc(C3CC3)nn2)cc1` [Compound A105, (2S,4R)-1-((S)-2-(1-(2-(4-(4′-chloro-5′-oxo-5′H-spiro[cyclohexane-1,7′-indolo[1,2-a]quinazolin]-10′-yl)piperidin-1-yl)acetyl)piperidin-4-yl)-2-(4-cyclopropyl-1H-1,2,3-triazol-1-yl)acetyl)-4-hydroxy-N—((S)-1-(4-(4-methylthiazol-5-yl)phenyl)ethyl)pyrrolidine-2-carboxamide], at SMARCA2, the half-maximal degradation concentration (DC50) is 100 to 1000 nM and the greatest degradation seen (Dmax) lay within 50 to 69%. At SMARCA4, the DC50 is greater than 1000 nM and the maximal degradation (Dmax) is less than 50%.

By DC50 is commonly meant the concentration at which degradation of the target reaches its halfway point. By Dmax is commonly meant the largest share of the target that was removed.

These data come from US20260092071A1, “COMPOUNDS AND COMPOSITIONS AS SMARCA2/4 DEGRADERS AND USES THEREOF” (REGENTS OF THE UNIVERSITY OF MICHIGAN, priority 2022, published 2026).
